Reference: patent publication US20180148418A1, “AMIDO-SUBSTITUTED CYCLOHEXANE DERIVATIVES” (Bayer Pharma Aktiengesellschaft, priority 2015, published 2018)

Legend:
[1] = system: HEK293 cells cotransfected with the FOP control vector; assay: HEK293 FOP assay (control reporter with non-functional TCF elements); assay type: cell-based; details: Homo sapiens, 16 hours
Procedure, shortened: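 Compound series from 50 μM down to 15 nM, prediluted in DMSO then 50-fold into CAFTY buffer (pH 7.4, 2 mM Ca2+, 0.01% BSA), tested alongside TOP cells on a Geneticin-selected HEK293 FOP line whose TCF elements are replaced by a random sequence; recombinant human Wnt-3a applied at 2500-5 ng/ml.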

TNKS2 = target: T1, TNKS2 (Homo sapiens, UniProt Q9H2K2); assay: TNKS2 Assay B (auto-parsylation, [3H]-NAD+ SPA); assay type: biochemical; details: 6 nM TNKS2, auto-parsylation, over night at room temperature
T1 construct: purchased BPS Bioscience, San Diego, USA 80572 (TNKS2 Histone Ribosylation Assay Kit)
T1 sequence (Q9H2K2 1-1166): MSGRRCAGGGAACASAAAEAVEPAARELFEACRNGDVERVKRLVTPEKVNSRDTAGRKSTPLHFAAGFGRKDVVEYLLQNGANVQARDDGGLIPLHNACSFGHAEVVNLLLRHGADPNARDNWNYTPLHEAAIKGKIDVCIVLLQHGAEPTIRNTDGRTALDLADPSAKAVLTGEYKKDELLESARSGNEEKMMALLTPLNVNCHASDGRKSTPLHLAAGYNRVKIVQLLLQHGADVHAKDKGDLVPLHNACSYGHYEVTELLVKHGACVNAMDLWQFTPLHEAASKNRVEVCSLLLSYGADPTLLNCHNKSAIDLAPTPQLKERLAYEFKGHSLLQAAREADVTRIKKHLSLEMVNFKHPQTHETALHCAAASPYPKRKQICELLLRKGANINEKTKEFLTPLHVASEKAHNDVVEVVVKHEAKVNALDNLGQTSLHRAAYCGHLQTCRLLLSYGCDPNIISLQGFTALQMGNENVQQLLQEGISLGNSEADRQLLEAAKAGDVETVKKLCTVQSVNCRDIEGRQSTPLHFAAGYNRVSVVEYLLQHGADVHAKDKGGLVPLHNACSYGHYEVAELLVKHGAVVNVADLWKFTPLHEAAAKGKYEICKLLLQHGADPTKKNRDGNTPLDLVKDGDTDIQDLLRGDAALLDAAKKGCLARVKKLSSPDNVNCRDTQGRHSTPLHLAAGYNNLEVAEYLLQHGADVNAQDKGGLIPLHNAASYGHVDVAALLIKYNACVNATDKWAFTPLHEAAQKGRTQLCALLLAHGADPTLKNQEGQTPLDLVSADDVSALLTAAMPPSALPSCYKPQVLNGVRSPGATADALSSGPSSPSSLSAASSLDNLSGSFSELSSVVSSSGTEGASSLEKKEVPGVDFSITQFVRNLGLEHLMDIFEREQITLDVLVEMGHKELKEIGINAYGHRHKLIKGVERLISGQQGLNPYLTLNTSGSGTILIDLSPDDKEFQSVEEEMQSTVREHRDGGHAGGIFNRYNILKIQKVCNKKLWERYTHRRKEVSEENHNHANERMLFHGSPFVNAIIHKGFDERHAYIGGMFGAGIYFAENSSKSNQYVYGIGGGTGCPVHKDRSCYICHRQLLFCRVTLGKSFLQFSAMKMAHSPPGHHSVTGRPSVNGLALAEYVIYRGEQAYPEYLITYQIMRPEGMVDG

With `Cc1cc(C)n2ncc(C(=O)NC34CCC(C(=O)Nc5c(F)cc(F)cc5Cl)(CC3)CC4)c2n1` [Example 127, N-{4-[(2-chloro-4,6-difluorophenyl)carbamoyl]bicyclo[2.2.2]oct-1-yl}-5,7-dimethylpyrazolo[1,5-a]pyrimidine-3-carboxamide] the IC50 [1] was no less than 50000 nM and the IC50 (TNKS2) was 300 nM.

`Cc1cc(C)n2ncc(C(=O)NC34CCC(C(=O)Nc5cnccc5Cl)(CC3)CC4)c2n1` [Example 128, N-{4-[(4-chloropyridin-3-yl)carbamoyl]bicyclo[2.2.2]oct-1-yl}-5,7-dimethylpyrazolo[1,5-a]pyrimidine-3-carboxamide] showed an IC50 [1] of no less than 50000 nM and an IC50 (TNKS2) of 96 nM.

With `O=C(NCC1CCCO1)c1nc[nH]c1C(=O)N[C@H]1CC[C@H](C(=O)Nc2cc(F)ccc2Cl)CC1` (stereo partly drawn) [Example 129, N^5-{trans-4-[(2-chloro-5-fluorophenyl)carbamoyl]cyclohexyl}-N^4-(tetrahydrofuran-2-ylmethyl)-1H-imidazole-4,5-dicarboxamide] the IC50 [1] was 39000 nM and the IC50 (TNKS2) was 34 nM.

`O=C(N[C@H]1CC[C@H](C(=O)Nc2cc(F)c(F)cc2Cl)CC1)c1cnn2cccnc12` [Example 130, N-{trans-4-[(2-chloro-4,5-difluorophenyl)carbamoyl]cyclohexyl}pyrazolo[1,5-a]pyrimidine-3-carboxamide] showed an IC50 [1] of no less than 50000 nM and an IC50 (TNKS2) of 18 nM.

Work on `O=C(N[C@H]1CC[C@H](C(=O)Nc2cc(F)c(F)cc2Cl)CC1)c1cnc2cccnn12` [Example 132, N-{trans-4-[(2-chloro-4,5-difluorophenyl)carbamoyl]cyclohexyl}imidazo[1,2-b]pyridazine-3-carboxamide] yielded an IC50 [1] of no less than 50000 nM and an IC50 (TNKS2) of 29 nM.

`O=C(N[C@H]1CC[C@H](C(=O)Nc2c(F)cc(F)cc2Cl)CC1)c1cnc2cccnn12` [Example 133, N-{trans-4-[(2-chloro-4,6-difluorophenyl)carbamoyl]cyclohexyl}imidazo[1,2-b]pyridazine-3-carboxamide] was tested, and the IC50 [1] was no less than 50000 nM and the IC50 (TNKS2) was 55 nM.

Compound `Cc1cc(C)n2ncc(C(=O)N[C@H]3CC[C@H](C(=O)Nc4cc(F)c(F)cc4Cl)CC3)c2n1` [Example 134, N-{trans-4-[(2-chloro-4,5-difluorophenyl)carbamoyl]cyclohexyl}-5,7-dimethylpyrazolo[1,5-a]pyrimidine-3-carboxamide] has an IC50 [1] of no less than 50000 nM and an IC50 (TNKS2) of 33 nM.

Compound `Cc1cc(C)n2ncc(C(=O)N[C@H]3CC[C@H](C(=O)Nc4c(F)cc(F)cc4Cl)CC3)c2n1` [Example 135, N-{trans-4-[(2-chloro-4,6-difluorophenyl)carbamoyl]cyclohexyl}-5,7-dimethylpyrazolo[1,5-a]pyrimidine-3-carboxamide] has an IC50 [1] of no less than 50000 nM and an IC50 (TNKS2) of 29 nM.

Compound `O=C(N[C@H]1CC[C@@]2(CCN(c3ccc(F)cc3Cl)C2=O)CC1)c1cnn2cccnc12` [Example 136, N-[(trans)-2-(2-chloro-4-fluorophenyl)-1-oxo-2-azaspiro[4.5]dec-8-yl]pyrazolo[1,5-a]pyrimidine-3-carboxamide] has an IC50 [1] of no less than 50000 nM and an IC50 (TNKS2) of 4.7 nM.

Work on `Cc1cnc2c(C(=O)N[C@H]3CC[C@@]4(CCN(c5ccc(F)cc5Cl)C4=O)CC3)cnn2c1` [Example 137, N-[(trans)-2-(2-chloro-4-fluorophenyl)-1-oxo-2-azaspiro[4.5]dec-8-yl]-6-methylpyrazolo[1,5-a]pyrimidine-3-carboxamide] yielded an IC50 [1] of no less than 50000 nM and an IC50 (TNKS2) of 3.3 nM.

For `O=C(N[C@H]1CC[C@@]2(CCN(c3ccc(F)cc3Cl)C2=O)CC1)c1cnc2cccnn12` [Example 138, N-[(trans)-2-(2-chloro-4-fluorophenyl)-1-oxo-2-azaspiro[4.5]dec-8-yl]imidazo[1,2-b]pyridazine-3-carboxamide], the IC50 [1] was no less than 50000 nM and the IC50 (TNKS2) was 7 nM.

In the case of `Cc1cc(C)n2ncc(C(=O)N[C@H]3CC[C@@]4(CCN(c5ccc(F)cc5Cl)C4=O)CC3)c2n1` [Example 139, N-[(trans)-2-(2-chloro-4-fluorophenyl)-1-oxo-2-azaspiro[4.5]dec-8-yl]-5,7-dimethylpyrazolo[1,5-a]pyrimidine-3-carboxamide], the IC50 [1] is reported as no less than 50000 nM and the IC50 (TNKS2) is reported as 4.2 nM.

`CNC(=O)c1[nH]cnc1C(=O)N[C@H]1CC[C@@]2(CCN(c3ccc(F)cc3Cl)C2=O)CC1` [Example 140, N^4-[(trans)-2-(2-chloro-4-fluorophenyl)-1-oxo-2-azaspiro[4.5]dec-8-yl]-N^5-methyl-1H-imidazole-4,5-dicarboxamide] gave an IC50 [1] of no less than 50000 nM and an IC50 (TNKS2) of 6.9 nM.

`CCNC(=O)c1[nH]cnc1C(=O)N[C@H]1CC[C@@]2(CCN(c3ccc(F)cc3Cl)C2=O)CC1` [Example 141, N^4-[(trans)-2-(2-chloro-4-fluorophenyl)-1-oxo-2-azaspiro[4.5]dec-8-yl]-N^5-ethyl-1H-imidazole-4,5-dicarboxamide] was tested, and the IC50 [1] was no less than 50000 nM and the IC50 (TNKS2) was 6.5 nM.

`CNC(=O)c1nc[nH]c1C(=O)N[C@H]1CC[C@H](C(=O)Nc2cc(C(F)(F)F)ccc2Cl)CC1` [Example 142, N^5-(trans-4-{[2-chloro-5-(trifluoromethyl)phenyl]carbamoyl}cyclohexyl)-N^4-methyl-1H-imidazole-4,5-dicarboxamide] was tested, and the IC50 [1] was 41000 nM and the IC50 (TNKS2) was 80 nM.

`COCC(C)NC(=O)c1nc[nH]c1C(=O)N[C@H]1CC[C@H](C(=O)Nc2cc(C(F)(F)F)ccc2Cl)CC1` (stereo partly drawn) [Example 143, N^5-(trans-4-{[2-chloro-5-(trifluoromethyl)phenyl]carbamoyl}cyclohexyl)-N^4-(1-methoxypropan-2-yl)-1H-imidazole-4,5-dicarboxamide] showed an IC50 [1] of 33000 nM and an IC50 (TNKS2) of 150 nM.

Compound `COC(C)(C)CNC(=O)c1nc[nH]c1C(=O)N[C@H]1CC[C@H](C(=O)Nc2cc(C(F)(F)F)ccc2Cl)CC1` [Example 144, N^5-(trans-4-{[2-chloro-5-(trifluoromethyl)phenyl]carbamoyl}cyclohexyl)-N^4-(2-methoxy-2-methylpropyl)-1H-imidazole-4,5-dicarboxamide] has an IC50 [1] of 25000 nM and an IC50 (TNKS2) of 230 nM.

Work on `CC(C)(O)CNC(=O)c1nc[nH]c1C(=O)N[C@H]1CC[C@H](C(=O)Nc2cc(C(F)(F)F)ccc2Cl)CC1` [Example 145, N^5-(trans-4-{[2-chloro-5-(trifluoromethyl)phenyl]carbamoyl}cyclohexyl)-N^4-(2-hydroxy-2-methylpropyl)-1H-imidazole-4,5-dicarboxamide] yielded an IC50 [1] of 15000 nM and an IC50 (TNKS2) of 280 nM.

`O=C(NCC1CCCO1)c1nc[nH]c1C(=O)N[C@H]1CC[C@H](C(=O)Nc2cc(C(F)(F)F)ccc2Cl)CC1` (stereo partly drawn) [Example 146, N^5-(trans-4-{[2-chloro-5-(trifluoromethyl)phenyl]carbamoyl}cyclohexyl)-N^4-(tetrahydrofuran-2-ylmethyl)-1H-imidazole-4,5-dicarboxamide] was tested, and the IC50 [1] was 29000 nM and the IC50 (TNKS2) was 100 nM.

`CNC(=O)c1nc[nH]c1C(=O)N[C@H]1CC[C@H](C(=O)Nc2ncncc2Cl)CC1` [Example 147, N^5-{trans-4-[(5-chloropyrimidin-4-yl)carbamoyl]cyclohexyl}-N^4-methyl-1H-imidazole-4,5-dicarboxamide] was tested, and the IC50 [1] was no less than 50000 nM and the IC50 (TNKS2) was 77 nM.

`O=C(N[C@H]1CC[C@]2(CCN(c3ccc(F)cc3Cl)C2=O)CC1)c1cnn2cccnc12` [Example 148, N-[(cis)-2-(2-chloro-4-fluorophenyl)-1-oxo-2-azaspiro[4.5]dec-8-yl]pyrazolo[1,5-a]pyrimidine-3-carboxamide] showed an IC50 [1] of no less than 50000 nM and an IC50 (TNKS2) of 1300 nM.
